Results as given in ChEMBL document CHEMBL3351350, “Inhibition of C-terminal truncated PPM1D enhances the effect of doxorubicin on cell viability in human colorectal carcinoma cell line” (2014).
The source made the active and inactive calls. The calls are words filed in the database; no cut-off is given here.

Tests used:
[1] = Cytotoxicity against human HCT116 cells assessed as cell viability at 40 uM after 48 hrs by MTS assay; assay type: functional; conditions: HCT-116, 48 h, read-out: Activity
[2] = Cytotoxicity against human HCT116 cells assessed as cell viability at 40 uM after 48 hrs by MTS assay in presence of doxorubicin; assay type: functional; conditions: HCT-116, 48 h, read-out: Activity
[3] = target: T1, Protein phosphatase 1D (Homo sapiens) (UniProt O15297); experiment: Inhibition of C-terminal truncated PPM1D in human HCT116 cells assessed as increase in Ser15 phosphorylated p53 level at 40 uM after 24 to 48 hrs by western blotting in presence of doxorubicin; assay type: cell-based; conditions: HCT-116
T1 sequence (whole entry): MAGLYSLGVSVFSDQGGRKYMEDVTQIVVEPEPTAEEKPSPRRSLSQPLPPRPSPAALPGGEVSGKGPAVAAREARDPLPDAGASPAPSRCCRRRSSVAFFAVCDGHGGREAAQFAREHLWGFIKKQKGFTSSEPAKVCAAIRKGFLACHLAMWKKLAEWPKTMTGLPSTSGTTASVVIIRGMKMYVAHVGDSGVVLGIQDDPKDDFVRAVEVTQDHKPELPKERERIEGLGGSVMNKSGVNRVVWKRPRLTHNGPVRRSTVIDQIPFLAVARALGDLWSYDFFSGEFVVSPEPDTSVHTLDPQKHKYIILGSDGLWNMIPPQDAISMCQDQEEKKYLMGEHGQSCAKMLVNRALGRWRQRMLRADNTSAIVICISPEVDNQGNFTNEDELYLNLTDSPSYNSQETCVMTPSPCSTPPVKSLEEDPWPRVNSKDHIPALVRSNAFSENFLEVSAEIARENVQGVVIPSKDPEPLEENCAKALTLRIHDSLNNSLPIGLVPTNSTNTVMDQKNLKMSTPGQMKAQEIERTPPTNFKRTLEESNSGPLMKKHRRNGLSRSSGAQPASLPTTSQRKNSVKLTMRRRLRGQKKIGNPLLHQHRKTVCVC

[4] = target: T1, Protein phosphatase 1D (Homo sapiens); experiment: Inhibition of C-terminal truncated PPM1D in human HCT116 cells assessed as increase in p21 level at 40 uM after 24 to 48 hrs by western blotting in presence of doxorubicin; assay type: cell-based; conditions: HCT-116
[5] = tested on: HCT-116; experiment: Increase in C-terminal truncated PPM1D level in human HCT116 cells at 40 uM after 24 to 48 hrs by western blotting in presence of doxorubicin; assay type: functional, cell-based
[6] = tested on: HCT-116; experiment: Cytotoxicity against human HCT116 cells assessed as inhibition of cell viability after 48 hrs by MTS assay; assay type: functional, cell-based
[7] = tested on: A549; experiment: Cytotoxicity against human A549 cells assessed as inhibition of cell viability after 48 hrs by MTS assay; assay type: functional, cell-based
[8] = Cytotoxicity against human HCT116 cells assessed as cell viability at 2 uM after 48 hrs by MTS assay; assay type: functional; conditions: HCT-116, 48 h, read-out: Activity
[9] = tested on: A549; experiment: Cytotoxicity against human A549 cells assessed as cell viability at 2 uM after 48 hrs by MTS assay; assay type: functional; conditions: A549, 48 h, read-out: Activity
[10] = target: T1, Protein phosphatase 1D (Homo sapiens); experiment: Inhibition of C-terminal truncated PPM1D in human HCT116 cells assessed as increase in Ser15 phosphorylated p53 level at 2 uM after 24 to 48 hrs by western blotting; assay type: cell-based; conditions: HCT-116
[11] = target: T1, Protein phosphatase 1D (Homo sapiens); experiment: Inhibition of C-terminal truncated PPM1D in human HCT116 cells assessed as increase in p21 level at 2 uM after 24 to 48 hrs by western blotting; assay type: cell-based; conditions: HCT-116

For `CC[Si](CC)(CC)O[C@@H]1C[C@H](C)C[C@@H]2[C@@H]1C[C@H](O[Si](C)(C)C(C)(C)C)[C@@H]1[C@](C)(CO)C[C@H](O)C[C@@]21C`, which viability at 40 µM [1] is on record?
Its viability at 40 µM is 94.2%.

And the viability at 40 µM [2]?
Its viability at 40 µM is 26.3%.

And the inhibition [3]?
The inhibition was “Active”.

And the inhibition [4]?
Its inhibition is “Active”.

What about the Activity [5] of the same molecule?
Its Activity is “Active”.

For `COc1cccc2c1C(=O)c1c(O)c3c(c(O)c1C2=O)C[C@@](O)(C(=O)CO)C[C@@H]3O[C@H]1C[C@H](N)[C@H](O)[C@H](C)O1` [DOXORUBICIN], which inhibition [6] is on record?
Its inhibition is “Dose-dependent effect”.

What about the inhibition [7] of the same molecule?
The inhibition was “Dose-dependent effect”.

And the viability at 2 µM [8]?
Its viability at 2 µM is 40.7%.

What about the viability at 2 µM [9] of the same molecule?
The viability at 2 µM was 5%.

What about the inhibition [10] of the same molecule?
Its inhibition is “Active”.

And the inhibition [11]?
The inhibition was “Active”.
